The source of these data is US9149478B2, “Diabetes therapy” (Boehringer Ingelheim International GmbH, priority 2010, dated 2015).

Series [1] in a line: Safety and tolerability in people with type 2 diabetes.
The subject of series [2] is non-obese-diabetic (NOD) mice. Description: Onset of diabetes and stereological pancreas assessment in NOD mice over 60 days. The note with it: female NOD mice. It counts as in vivo, mouse. An excerpt: Though reduced pancreatic T-cell migration and altered cytokine production is considered important players for the onset of insulinitis the exact mechanism and effects on the pancreatic cell pool is still incompletely understood.
Bi-weekly plasma samples are obtained to determine onset of diabetes (BG>11 mmol/l).

Series [3] is described as follows: Pharmacokinetics of BI 1356 after multiple oral doses once daily for 12 days in patients with type 2 diabetes. The note with it: for feτ,ss: steady state (Day 12); for feτ,ss / fe0-24: gMean (gCV); for fe0-24: fraction excreted in urine.
A short description of series [4]: Pharmacokinetic profile of linagliptin (general statement). The note with it: in vivo.
For series [5] the following is noted: in vivo; cited from earlier work.

In general, half-life refers to the time needed for the level to fall by half in the phase considered. A low value points to rapid decline.

In the case of `CC#CCn1c(N2CCC[C@@H](N)C2)nc2c1c(=O)n(Cc1nc(C)c3ccccc3n1)c(=O)n2C` [BI 1356, 1-[(4-methyl-quinazolin-2-yl)methyl]-3-methyl-7-(2-butyn-1-yl)-8-(3-(R)-amino-piperidin-1-yl)-xanthine], the safety and tolerability result in series [1] was “placebo-like safety and tolerability”. In addition, the “incidence of diabetes (BG>11 mmol/l) at the end of the study period” value in series [2] (0.083 g linagliptin/kg chow (3-10 mg/kg p.o.), 60 days) is on record as 9 out of 30. The “beta cell mass (insulin immunoreactivity)” value in series [2] (linagliptin in chow, 60 days, stereology) was found to be 0.48 ± 0.09 mg. In addition, the “active plasma GLP-1 at termination” value in series [2] (linagliptin in chow, versus control) is reported as “higher”. The “feτ,ss” value in series [3] (1 mg oral once daily) is reported as 3.34 (38.3) %; in series [3] (2.5 mg oral once daily), 3.06 (45.1) %; in series [3] (5 mg oral once daily) it was 6.27 (42.2) %; in series [3] (10 mg oral once daily), 3.22 (34.2) %. Further, the fe0-24 is 0.139 (51.2) % in series [3] (2.5 mg oral once daily), 0.453 (125) % in series [3] (5 mg oral once daily) and 0.919 (115) % in series [3] (10 mg oral once daily). For the same molecule, the “mean accumulation ratio RA,AUC” value in series [3] (doses above 1 mg, oral once daily) is at most 1.4. In addition, in series [3] (therapeutic oral dose levels), the “excreted via the kidney” value is given as < 7 % of the administered oral dose. The route of excretion entry in series [3] (therapeutic oral dose levels) is “primarily excreted unchanged via the bile”. In addition, the half-life in series [4] is at most 72 h.

As for “N^εB29-(N^α-(ω-carboxypentadecanoyl)-L-γ-glutamyl) des(B30) human insulin [Insulin degludec]”, the duration of action result in series [5] is “more than 24 hours”.
